# Measured values reported in patent US10759781B2, “Substituted guanidine derivatives” (UBE INDUSTRIES, LTD., priority 2015, dated 2020).
# Where a name gives a salt, the structure may show the parent alone.
# Columns and labels:
# [1] = target: T1, Human VAP-1 enzyme (Homo sapiens, UniProt Q16853); test: Human VAP-1 enzyme inhibition test; assay type: biochemical; settings: 1 h; compound 30 nM; 14C-benzylamine 100 μM; read-out: inhibition ratio (human VAP-1 enzyme)
# T1 construct: purchased R&D Systems, Inc
# T1 sequence (Q16853 1-763): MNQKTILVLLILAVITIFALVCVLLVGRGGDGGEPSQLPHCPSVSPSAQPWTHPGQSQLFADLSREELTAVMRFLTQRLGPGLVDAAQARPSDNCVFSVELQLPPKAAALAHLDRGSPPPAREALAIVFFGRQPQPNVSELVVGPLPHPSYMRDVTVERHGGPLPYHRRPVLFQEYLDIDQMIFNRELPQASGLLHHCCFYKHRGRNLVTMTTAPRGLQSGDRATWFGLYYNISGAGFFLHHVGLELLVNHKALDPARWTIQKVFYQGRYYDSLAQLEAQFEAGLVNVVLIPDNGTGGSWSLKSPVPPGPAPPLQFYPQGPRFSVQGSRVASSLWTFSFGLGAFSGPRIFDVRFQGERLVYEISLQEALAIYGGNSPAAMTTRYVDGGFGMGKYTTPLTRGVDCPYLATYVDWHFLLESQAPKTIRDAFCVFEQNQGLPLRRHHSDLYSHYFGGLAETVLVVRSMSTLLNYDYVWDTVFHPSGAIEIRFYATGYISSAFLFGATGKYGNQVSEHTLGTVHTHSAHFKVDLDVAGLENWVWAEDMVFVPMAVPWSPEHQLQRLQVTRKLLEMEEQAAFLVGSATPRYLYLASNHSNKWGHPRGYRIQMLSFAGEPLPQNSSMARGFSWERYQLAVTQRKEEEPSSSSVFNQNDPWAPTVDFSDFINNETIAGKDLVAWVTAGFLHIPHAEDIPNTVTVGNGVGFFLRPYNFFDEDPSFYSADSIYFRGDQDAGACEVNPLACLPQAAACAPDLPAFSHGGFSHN
# Summary of the method: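 Activity measured as radioactive oxidation product of 14C-benzylamine (100 μM final), extracted with toluene/ethyl acetate after citric acid stop and scintillation-counted. Enzyme (recombinant human VAP-1) first exposed to compound 20 min at room temperature, reaction then 1 h at 37 °C. Percent inhibition versus DMSO control.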
# [2] = target: T2, Rat Plasma VAP-1 (Rattus norvegicus, UniProt O08590); test: (Ex vivo) rat plasma VAP-1 inhibition test after oral administration of the compound; assay type: in vivo; settings: 3 hours after oral administration, SD male rats, read-out: inhibition ratio (plasma VAP-1, ex vivo)
# T2 construct: from tissue; host or cells: plasma of SD male rats (7-12 weeks old) after oral dosing
# T2 sequence (O08590 28-763 limits assumed): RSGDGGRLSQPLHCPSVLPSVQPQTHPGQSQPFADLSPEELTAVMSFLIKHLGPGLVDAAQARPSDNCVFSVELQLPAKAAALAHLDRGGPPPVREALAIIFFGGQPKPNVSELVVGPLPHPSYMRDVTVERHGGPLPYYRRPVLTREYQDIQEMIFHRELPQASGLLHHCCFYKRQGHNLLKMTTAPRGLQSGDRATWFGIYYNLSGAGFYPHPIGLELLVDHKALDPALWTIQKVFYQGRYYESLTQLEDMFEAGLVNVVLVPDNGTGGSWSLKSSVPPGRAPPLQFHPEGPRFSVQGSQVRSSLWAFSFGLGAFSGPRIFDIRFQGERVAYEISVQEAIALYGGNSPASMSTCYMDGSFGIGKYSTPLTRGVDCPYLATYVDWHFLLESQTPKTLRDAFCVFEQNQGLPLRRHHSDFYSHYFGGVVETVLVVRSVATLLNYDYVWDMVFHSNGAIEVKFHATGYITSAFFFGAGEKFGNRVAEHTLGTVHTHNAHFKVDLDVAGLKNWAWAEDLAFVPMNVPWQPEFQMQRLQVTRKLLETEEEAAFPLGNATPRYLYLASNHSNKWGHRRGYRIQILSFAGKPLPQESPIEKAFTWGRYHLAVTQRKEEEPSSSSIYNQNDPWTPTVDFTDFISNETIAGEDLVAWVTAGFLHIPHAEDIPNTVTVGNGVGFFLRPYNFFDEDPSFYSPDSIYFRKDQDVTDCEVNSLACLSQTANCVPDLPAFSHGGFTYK
# Description: (Ex Vivo) Rat Plasma VAP-1 Inhibition Test after Oral Administration of the Compound
# The compound was orally administered (0.3-10 mg/kg) to 7-12 week old SD male rats in the non-fasting state. Under anesthesia, the blood was collected in heparin tubes from the jugular vein before the administration and 3, 8 and 24 hours after the administration. The blood was centrifuged at 14000 rpm for 10 minutes to get plasma. The VAP-1 enzyme activity in the plasma was measured by radiochemical enzyme assay.
# The radiochemical enzyme assay was conducted by modifying the method of P. H. Yu et al. (Diabetologia 40 1243 (1997)). ^14C-benzylamine (2.5 μM) was added to the obtained plasma, and was incubated at 37° C. for 3 hours. The reaction was terminated by the addition of 100 μL of 2 M citric acid solution to the reaction solution. The oxidative product was extracted using a toluene/ethyl acetate mixture and the radioactivity was measured with a liquid scintillation counter. The inhibition ratio of the compound was calculated using the following equation. Inhibition ratio={1−[Plasma VAP-1 activity after administration of the compound]/[Plasma VAP-1 activity before administration]}×100
Structure (SMILES),inhibition at 0.03 µM [1] [%],inhibition in vivo at 0.3 mg/kg [2] [%]
"COCCON=C1CN(c2ncc(-c3cccc(COC(=O)NC(=N)N)c3F)cn2)C1 [Example 12, 2-Fluoro-3-(2-{3-[(2-methoxyethoxy)imino]azetidin-1-yl}pyrimidin-5-yl)benzyl carbamimidoylcarbamate]",≥ 50,≥ 50
"COCC(CON=C1CN(c2ncc(-c3cccc(COC(=O)NC(=N)N)c3F)cn2)C1)OC(C)=O (centres unmarked) [Example 20, 1-[({1-[5-(3-{[(Carbamimidoylcarbamoyl)oxy]methyl}-2-fluorophenyl)pyrimidin-2-yl]azetidin-3-ylidene}amino)oxy]-3-methoxypropan-2-yl acetate]",≥ 50,≥ 50
"CON=C1CN(c2ccc(-c3cccc(COC(=O)NC(=N)N)c3F)cn2)C1 [Example 41, 2-Fluoro-3-{6-[3-(methoxyimino)azetidin-1-yl]pyridin-3-yl}benzyl carbamimidoylcarbamate]",≥ 50,≥ 50
"CON=C1CN(c2ncc(-c3cccc(COC(=O)NC(=N)N)c3F)cc2C)C1 [Example 42, 2-Fluoro-3-{6-[3-(methoxyimino)azetidin-1-yl]-5-methylpyridin-3-yl}benzyl carbamimidoylcarbamate]",≥ 50,≥ 50
"N=C(N)NC(=O)OCc1cccc(-c2cnc(N3CCC(=NOCCOC4CCCCO4)CC3)nc2)c1F (centres unmarked) [Example 57, 2-Fluoro-3-{2-[4-({2-[(tetrahydropyran-2-yl)oxy]ethoxy}imino)piperidin-1-yl]pyrimidin-5-yl}benzyl carbamimidoylcarbamate]",≥ 50,≥ 50
"COCCON=C1CCN(c2ncc(-c3cccc(COC(=O)NC(=N)N)c3F)cn2)CC1 [Example 60, 2-Fluoro-3-(2-{4-[(2-methoxyethoxy)imino]piperidin-1-yl}pyrimidin-5-yl)benzyl carbamimidoylcarbamate]",≥ 50,≥ 50
"CC(=O)OCCON=C1CCN(c2ncc(-c3cccc(COC(=O)NC(=N)N)c3F)cn2)CC1 [Example 68, 2-[({1-[5-(3-{[(Carbamimidoylcarbamoyl)oxy]methyl}-2-fluorophenyl)pyrimidin-2-yl]piperidin-4-ylidene}amino)oxy]ethyl acetate]",≥ 50,≥ 50
"CO/N=C1\CCN(c2ncc(-c3cccc(COC(=O)NC(=N)N)c3F)cn2)C1 [Example 69, (E/Z)-2-fluoro-3-{2-[3-(methoxyimino)pyrrolidin-1-yl]pyrimidin-5-yl}benzyl carbamimidoylcarbamate]",≥ 50,≥ 50
"N=C(N)NC(=O)OCc1cccc(-c2cnc(N3CC(=NO)C3)nc2)c1F [Example 70, 2-Fluoro-3-{2-[3-(hydroxyimino)azetidin-1-yl]pyrimidin-5-yl}benzyl carbamimidoylcarbamate]",≥ 50,≥ 50
"N=C(N)NC(=O)OCc1cccc(-c2cnc(N3CC(=NOCCCO)C3)nc2)c1F [Example 72, 2-Fluoro-3-(2-{3-[(3-hydroxypropoxy)imino]azetidin-1-yl}pyrimidin-5-yl)benzyl carbamimidoylcarbamate]",≥ 50,≥ 50
"N=C(N)NC(=O)OCc1cccc(-c2cnc(N3CC(=NOCC(CO)COC(=O)c4ccccc4)C3)nc2)c1F (centres unmarked) [Example 83, 3-[({1-[5-(3-{[(Carbamimidoylcarbamoyl)oxy]methyl}-2-fluorophenyl)pyrimidin-2-yl]azetidin-3-ylidene}amino)oxy]-2-(hydroxymethyl)propyl benzoate]",–,≥ 50
"N=C(N)NC(=O)OCc1cccc(-c2cnc(N3CCC(=NOCCCCO)CC3)nc2)c1F [Example 87, 2-Fluoro-3-(2-{4-[(4-hydroxybutoxy)imino]piperidin-1-yl}pyrimidin-5-yl)benzyl carbamimidoylcarbamate hydrochloride]",≥ 50,≥ 50
"N=C(N)NC(=O)OCc1cccc(-c2cnc(N3CC(=NOCCC(O)CO)C3)nc2)c1F (centres unmarked) [Example 94, 3-(2-{3-[(3,4-Dihydroxybutoxy)imino]azetidin-1-yl}pyrimidin-5-yl)-2-fluorobenzyl carbamimidoylcarbamate]",≥ 50,≥ 50

# Continued, values first:
inhibition at 0.03 µM [1] [%],inhibition in vivo at 0.3 mg/kg [2] [%],Structure (SMILES)
≥ 50,≥ 50,"N=C(N)NC(=O)OCc1cccc(-c2cnc(N3CCC(=NOCCO)CC3)nc2)c1F [Example 85, 2-Fluoro-3-(2-{4-[(2-hydroxyethoxy)imino]piperidin-1-yl}pyrimidin-5-yl)benzyl carbamimidoylcarbamate]"
≥ 50,≥ 50,"N=C(N)NC(=O)OCc1cccc(-c2cnc(N3CCC(=NOCCCO)CC3)nc2)c1F [Example 86, 2-Fluoro-3-(2-{4-[(3-hydroxypropoxy)imino]piperidin-1-yl}pyrimidin-5-yl)benzyl carbamimidoylcarbamate hydrochloride]"
≥ 50,≥ 50,"CC(O)CON=C1CCN(c2ncc(-c3cccc(COC(=O)NC(=N)N)c3F)cn2)CC1 (centres unmarked) [Example 90, 2-Fluoro-3-(2-{4-[(2-hydroxypropoxy)imino]piperidin-1-yl}pyrimidin-5-yl)benzyl carbamimidoylcarbamate]"
≥ 50,≥ 50,"CC(CO)CON=C1CCN(c2ncc(-c3cccc(COC(=O)NC(=N)N)c3F)cn2)CC1 (centres unmarked) [Example 91, 2-Fluoro-3-(2-{4-[(3-hydroxy-2-methylpropoxy)imino]piperidin-1-yl}pyrimidin-5-yl)benzyl carbamimidoylcarbamate]"
≥ 50,≥ 50,"N=C(N)NC(=O)OCc1cccc(-c2cnc(N3CCC(=NOCC(CO)CO)CC3)nc2)c1F [Example 97, 2-Fluoro-3-[2-(4-{[3-hydroxy-2-(hydroxymethyl)propoxy]imino}piperidin-1-yl)pyrimidin-5-yl]benzyl carbamimidoylcarbamate]"
≥ 50,≥ 50,"CC(CO)(CO)CON=C1CCN(c2ncc(-c3cccc(COC(=O)NC(=N)N)c3F)cn2)CC1 [Example 98, 2-Fluoro-3-[2-(4-{[3-hydroxy-2-(hydroxymethyl)-2-methylpropoxy]imino}piperidin-1-yl)pyrimidin-5-yl]benzyl carbamimidoylcarbamate]"
–,≥ 50,"CCOC(=O)CCON=C1CCN(c2ncc(-c3cccc(COC(=O)NC(=N)N)c3F)cn2)CC1 [Example 149, Ethyl 3-[({1-[5-(3-{[(carbamimidoylcarbamoyl)oxy]methyl}-2-fluorophenyl)pyrimidin-2-yl]piperidin-4-ylidene}amino)oxy]propanoate]"
